Measurements published in ChEMBL document CHEMBL1240295, “Specificity and mechanism of action of some commonly used protein kinase inhibitors” (Biochem J, 2000).
pIC50: −log10 of the molar value.

Columns and labels:
[1] = biological target: T1, Serine/threonine-protein kinase Chk1 (Homo sapiens) (UniProt O14757); conditions: at 10 µM
T1 sequence (whole entry): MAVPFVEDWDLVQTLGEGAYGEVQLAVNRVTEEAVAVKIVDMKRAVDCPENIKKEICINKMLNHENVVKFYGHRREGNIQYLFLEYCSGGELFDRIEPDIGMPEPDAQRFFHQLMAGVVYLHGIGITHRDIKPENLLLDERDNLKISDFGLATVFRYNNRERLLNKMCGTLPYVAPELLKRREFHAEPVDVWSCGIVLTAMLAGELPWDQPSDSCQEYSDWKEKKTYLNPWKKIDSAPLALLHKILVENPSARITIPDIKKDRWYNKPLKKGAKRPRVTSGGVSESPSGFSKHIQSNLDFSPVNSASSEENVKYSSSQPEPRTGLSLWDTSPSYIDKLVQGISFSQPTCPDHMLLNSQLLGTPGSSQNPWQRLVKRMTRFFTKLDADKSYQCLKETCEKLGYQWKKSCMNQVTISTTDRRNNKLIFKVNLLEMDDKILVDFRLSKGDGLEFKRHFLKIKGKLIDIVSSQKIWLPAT
Description: Inhibition of His-tagged human CHK1 expressed in Escherichia coli at 10 uM

[2] = species on record: Rattus norvegicus; conditions: at 10 µM
Description: Inhibition of rat liver AMPK at 10 uM

[3] = biological target: T2, MAP kinase-activated protein kinase 5 (Homo sapiens) (UniProt Q8IW41); conditions: Sf9, at 10 µM
T2 sequence (whole entry): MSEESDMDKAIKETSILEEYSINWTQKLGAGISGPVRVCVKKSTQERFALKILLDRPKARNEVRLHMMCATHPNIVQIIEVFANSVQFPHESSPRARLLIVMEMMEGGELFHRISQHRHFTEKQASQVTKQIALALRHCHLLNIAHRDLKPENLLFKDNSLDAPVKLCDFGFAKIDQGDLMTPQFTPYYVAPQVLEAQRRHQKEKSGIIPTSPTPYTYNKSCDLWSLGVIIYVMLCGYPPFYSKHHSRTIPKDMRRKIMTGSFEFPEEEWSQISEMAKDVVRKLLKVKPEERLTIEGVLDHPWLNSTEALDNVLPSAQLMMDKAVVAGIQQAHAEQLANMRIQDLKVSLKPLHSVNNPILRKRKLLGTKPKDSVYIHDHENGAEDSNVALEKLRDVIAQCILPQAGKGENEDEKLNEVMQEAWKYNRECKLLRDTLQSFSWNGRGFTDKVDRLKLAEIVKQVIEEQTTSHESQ
Description: Inhibition of His-tagged human PRAK expressed in Sf9 cells at 10 uM

[4] = biological target: RAC-alpha serine/threonine-protein kinase (Homo sapiens) (UniProt P31749); conditions: Sf9, at 10 µM
Description: Inhibition of human PKBalpha expressed in SF9 cells at 10 uM

[5] = biological target: T3, Serine/threonine-protein kinase Sgk1 (Homo sapiens) (UniProt O00141); conditions: Sf9, at 10 µM
T3 sequence (whole entry): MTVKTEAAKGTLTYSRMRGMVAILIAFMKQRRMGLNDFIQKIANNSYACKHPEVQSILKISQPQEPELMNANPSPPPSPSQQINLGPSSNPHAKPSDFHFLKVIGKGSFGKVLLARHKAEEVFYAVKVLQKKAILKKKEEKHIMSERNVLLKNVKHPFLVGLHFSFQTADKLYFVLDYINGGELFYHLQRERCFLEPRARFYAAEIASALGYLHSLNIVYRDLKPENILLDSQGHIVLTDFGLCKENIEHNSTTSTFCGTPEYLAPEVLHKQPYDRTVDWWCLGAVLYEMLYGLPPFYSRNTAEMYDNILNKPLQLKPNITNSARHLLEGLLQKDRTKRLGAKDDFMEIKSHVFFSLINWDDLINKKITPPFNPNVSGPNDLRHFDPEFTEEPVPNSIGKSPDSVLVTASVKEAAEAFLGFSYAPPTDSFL
Description: Inhibition of His-tagged human SGK expressed in Sf9 cells at 10 uM

[6] = biological target: MAP kinase-activated protein kinase 2 (Homo sapiens, UniProt P49137); conditions: at 10 µM
Description: Inhibition of Gst-tagged human MAPKAPK2 expressed in Escherichia coli at 10 uM

[7] = biological target: Rho-associated protein kinase 2 (Rattus norvegicus) (UniProt Q62868); conditions: Sf9, at 10 µM
Chain of Rho-associated protein kinase 2 (Rattus norvegicus) (Q62868 whole entry, looked up): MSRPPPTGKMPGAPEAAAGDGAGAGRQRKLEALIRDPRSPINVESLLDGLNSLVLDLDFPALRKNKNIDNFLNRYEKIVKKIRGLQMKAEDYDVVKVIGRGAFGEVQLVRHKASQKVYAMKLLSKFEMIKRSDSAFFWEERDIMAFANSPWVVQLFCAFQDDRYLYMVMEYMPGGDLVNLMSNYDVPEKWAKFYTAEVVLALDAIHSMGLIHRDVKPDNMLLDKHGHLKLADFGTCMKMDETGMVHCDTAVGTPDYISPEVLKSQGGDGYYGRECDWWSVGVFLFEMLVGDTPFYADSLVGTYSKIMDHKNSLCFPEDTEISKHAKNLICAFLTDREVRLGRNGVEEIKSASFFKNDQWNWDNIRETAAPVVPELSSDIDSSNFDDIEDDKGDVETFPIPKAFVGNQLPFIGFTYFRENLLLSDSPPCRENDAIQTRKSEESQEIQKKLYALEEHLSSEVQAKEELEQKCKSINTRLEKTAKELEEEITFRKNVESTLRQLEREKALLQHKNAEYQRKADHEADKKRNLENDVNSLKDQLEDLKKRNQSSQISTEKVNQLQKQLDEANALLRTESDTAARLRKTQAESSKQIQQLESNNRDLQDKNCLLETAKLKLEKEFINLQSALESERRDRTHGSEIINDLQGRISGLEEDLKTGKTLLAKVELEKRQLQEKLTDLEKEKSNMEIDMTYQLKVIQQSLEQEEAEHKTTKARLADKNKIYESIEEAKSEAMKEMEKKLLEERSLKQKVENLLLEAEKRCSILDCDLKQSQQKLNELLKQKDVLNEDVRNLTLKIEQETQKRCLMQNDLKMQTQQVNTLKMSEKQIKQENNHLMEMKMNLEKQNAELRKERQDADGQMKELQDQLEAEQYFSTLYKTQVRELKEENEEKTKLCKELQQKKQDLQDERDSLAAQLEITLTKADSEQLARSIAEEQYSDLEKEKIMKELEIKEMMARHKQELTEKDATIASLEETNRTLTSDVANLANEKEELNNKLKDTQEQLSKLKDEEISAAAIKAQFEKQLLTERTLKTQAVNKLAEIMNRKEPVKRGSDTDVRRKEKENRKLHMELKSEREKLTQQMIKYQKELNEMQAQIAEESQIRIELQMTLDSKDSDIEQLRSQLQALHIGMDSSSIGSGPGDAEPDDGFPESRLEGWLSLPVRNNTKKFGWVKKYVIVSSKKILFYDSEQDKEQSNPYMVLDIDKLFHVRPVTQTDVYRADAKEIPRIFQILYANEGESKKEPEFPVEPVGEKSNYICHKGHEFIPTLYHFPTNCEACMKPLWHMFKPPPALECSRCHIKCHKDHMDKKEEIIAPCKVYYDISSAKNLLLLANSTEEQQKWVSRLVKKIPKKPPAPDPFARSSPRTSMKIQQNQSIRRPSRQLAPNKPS
Description: Inhibition of rat ROCK2 expressed in Sf9 cells at 10 uM

[8] = biological target: T4, Mitogen-activated protein kinase 13 (Homo sapiens) (UniProt O15264); conditions: at 10 µM
T4 sequence (whole entry): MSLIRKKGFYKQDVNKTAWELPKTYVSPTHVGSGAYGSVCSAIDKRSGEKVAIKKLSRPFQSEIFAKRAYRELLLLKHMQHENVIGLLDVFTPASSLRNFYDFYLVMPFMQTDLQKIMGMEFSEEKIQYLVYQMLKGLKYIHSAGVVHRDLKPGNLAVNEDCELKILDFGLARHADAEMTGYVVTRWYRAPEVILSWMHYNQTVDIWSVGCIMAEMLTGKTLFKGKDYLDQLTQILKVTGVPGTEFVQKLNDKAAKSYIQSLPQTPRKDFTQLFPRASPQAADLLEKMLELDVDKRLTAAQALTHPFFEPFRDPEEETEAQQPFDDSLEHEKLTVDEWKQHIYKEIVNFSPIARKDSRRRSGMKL
Description: Inhibition of Gst-tagged human SAPK4/p38delta expressed in Escherichia coli at 10 uM

[9] = biological target: Casein kinase II (Homo sapiens) (UniProt P67870+P68400+P19784); conditions: Sf9, at 10 µM
Description: Inhibition of His-tagged human CK2 expressed in Sf9 cells at 10 uM

[10] = biological target: Tyrosine-protein kinase Lck (Homo sapiens) (UniProt P06239); conditions: Sf9, at 10 µM
Description: Inhibition of His-tagged human LCK expressed in Sf9 cells at 10 uM

[11] = biological target: Glycogen synthase kinase-3 beta (Homo sapiens, UniProt P49841); conditions: Sf21, at 10 µM
Chain of Glycogen synthase kinase-3 beta (P49841 whole entry, looked up): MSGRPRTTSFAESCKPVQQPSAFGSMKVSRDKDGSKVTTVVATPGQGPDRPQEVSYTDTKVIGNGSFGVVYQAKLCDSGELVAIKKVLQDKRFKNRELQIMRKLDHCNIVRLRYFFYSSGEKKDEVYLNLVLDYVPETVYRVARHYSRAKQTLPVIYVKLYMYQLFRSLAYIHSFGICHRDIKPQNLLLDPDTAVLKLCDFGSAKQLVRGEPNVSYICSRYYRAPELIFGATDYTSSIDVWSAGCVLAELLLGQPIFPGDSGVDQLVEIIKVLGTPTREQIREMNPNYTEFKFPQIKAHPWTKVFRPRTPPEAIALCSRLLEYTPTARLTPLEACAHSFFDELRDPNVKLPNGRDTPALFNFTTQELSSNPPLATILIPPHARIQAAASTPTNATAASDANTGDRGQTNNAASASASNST
Description: Inhibition of His-tagged human GSK3b expressed in Sf21 cells at 10 uM

[12] = biological target: Mitogen-activated protein kinase 14 (Homo sapiens) (UniProt Q16539); conditions: at 10 µM
Chain of Mitogen-activated protein kinase 14 (Homo sapiens) (Q16539 whole entry): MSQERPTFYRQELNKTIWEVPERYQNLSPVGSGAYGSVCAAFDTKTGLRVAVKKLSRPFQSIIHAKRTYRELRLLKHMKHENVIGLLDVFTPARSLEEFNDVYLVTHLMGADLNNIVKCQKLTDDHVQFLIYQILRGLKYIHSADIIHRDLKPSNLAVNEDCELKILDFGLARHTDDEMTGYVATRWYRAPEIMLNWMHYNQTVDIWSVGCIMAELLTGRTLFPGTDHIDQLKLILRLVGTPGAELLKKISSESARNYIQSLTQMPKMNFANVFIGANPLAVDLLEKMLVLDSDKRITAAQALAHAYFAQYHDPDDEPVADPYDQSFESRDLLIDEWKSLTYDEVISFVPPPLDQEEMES
Description: Inhibition of Gst-tagged human SAPK2a/p38 expressed in Escherichia coli at 10 uM

[13] = biological target: Mitogen-activated protein kinase 1 (Homo sapiens) (UniProt P28482); conditions: at 10 µM
Chain of Mitogen-activated protein kinase 1 (Homo sapiens) (P28482 whole entry): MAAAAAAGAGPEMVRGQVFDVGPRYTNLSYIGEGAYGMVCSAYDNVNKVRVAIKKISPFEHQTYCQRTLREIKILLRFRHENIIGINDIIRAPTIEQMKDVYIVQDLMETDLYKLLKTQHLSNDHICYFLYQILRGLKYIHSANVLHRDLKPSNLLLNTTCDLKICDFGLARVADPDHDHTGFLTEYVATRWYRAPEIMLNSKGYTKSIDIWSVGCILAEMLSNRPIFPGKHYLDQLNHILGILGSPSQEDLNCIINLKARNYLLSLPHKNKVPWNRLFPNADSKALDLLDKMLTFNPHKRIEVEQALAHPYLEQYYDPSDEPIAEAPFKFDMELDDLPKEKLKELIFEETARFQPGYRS
Description: Inhibition of Gst-tagged human MAPK2/ERK2 expressed in Escherichia coli at 10 uM

[14] = species on record: Bos taurus; conditions: at 10 µM
Description: Inhibition of bovine heart PKA at 10 uM

[15] = biological target: Mitogen-activated protein kinase 8 (Homo sapiens) (UniProt P45983); conditions: at 10 µM
Chain of Mitogen-activated protein kinase 8 (Homo sapiens) (P45983 whole entry): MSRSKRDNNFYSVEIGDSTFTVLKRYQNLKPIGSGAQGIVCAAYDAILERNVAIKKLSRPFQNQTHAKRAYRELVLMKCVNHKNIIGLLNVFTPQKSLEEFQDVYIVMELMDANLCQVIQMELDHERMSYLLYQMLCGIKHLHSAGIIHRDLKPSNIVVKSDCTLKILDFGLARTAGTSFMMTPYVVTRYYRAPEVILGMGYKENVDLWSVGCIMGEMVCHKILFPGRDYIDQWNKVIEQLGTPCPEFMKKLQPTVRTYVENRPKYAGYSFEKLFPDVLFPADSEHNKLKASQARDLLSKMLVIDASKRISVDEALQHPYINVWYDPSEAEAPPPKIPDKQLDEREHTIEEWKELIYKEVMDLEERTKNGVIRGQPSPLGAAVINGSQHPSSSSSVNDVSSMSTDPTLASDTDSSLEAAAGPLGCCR
Description: Inhibition of Gst-tagged human JNK1a1 expressed in Escherichia coli at 10 uM

[16] = species on record: Mus musculus; assay: Inhibition of EGF-induced activation of MKK1 in mouse […] at 2 nM; format: cell-based
[17] = biological target: Mitogen-activated protein kinase 11 (Homo sapiens) (UniProt Q15759); conditions: at 10 µM
Chain of Mitogen-activated protein kinase 11 (Homo sapiens) (Q15759 whole entry): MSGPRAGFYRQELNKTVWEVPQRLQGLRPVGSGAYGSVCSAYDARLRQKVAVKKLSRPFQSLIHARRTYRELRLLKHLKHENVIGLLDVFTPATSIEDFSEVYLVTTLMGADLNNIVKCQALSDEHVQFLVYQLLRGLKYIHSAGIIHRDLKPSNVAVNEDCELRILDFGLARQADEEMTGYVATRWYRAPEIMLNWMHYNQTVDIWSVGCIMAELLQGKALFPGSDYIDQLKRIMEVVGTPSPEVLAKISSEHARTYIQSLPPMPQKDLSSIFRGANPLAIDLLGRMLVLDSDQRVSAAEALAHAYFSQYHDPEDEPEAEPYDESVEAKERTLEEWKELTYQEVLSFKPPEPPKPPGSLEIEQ
Description: Inhibition of Gst-tagged human SAPK2b/p38--beta-2 expressed in Escherichia coli at 10 uM

[18] = biological target: T5, Mitogen-activated protein kinase 12 (Homo sapiens) (UniProt P53778); conditions: at 10 µM
T5 sequence (whole entry): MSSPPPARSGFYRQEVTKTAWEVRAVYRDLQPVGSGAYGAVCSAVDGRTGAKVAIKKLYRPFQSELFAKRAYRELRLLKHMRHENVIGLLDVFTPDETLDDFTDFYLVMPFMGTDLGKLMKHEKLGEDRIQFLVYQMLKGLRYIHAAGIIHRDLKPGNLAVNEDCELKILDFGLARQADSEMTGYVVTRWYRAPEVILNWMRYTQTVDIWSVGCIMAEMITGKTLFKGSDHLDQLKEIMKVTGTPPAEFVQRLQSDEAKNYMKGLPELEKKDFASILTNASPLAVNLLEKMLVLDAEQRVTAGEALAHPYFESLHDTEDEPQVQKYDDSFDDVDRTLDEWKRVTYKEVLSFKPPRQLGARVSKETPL
Description: Inhibition of Gst-tagged human SAPK3/p38gamma expressed in Escherichia coli at 10 uM

[19] = biological target: Ribosomal protein S6 kinase alpha-5 (Homo sapiens, UniProt O75582); conditions: Sf9, at 10 µM
Chain of Ribosomal protein S6 kinase alpha-5 (O75582 whole entry, looked up): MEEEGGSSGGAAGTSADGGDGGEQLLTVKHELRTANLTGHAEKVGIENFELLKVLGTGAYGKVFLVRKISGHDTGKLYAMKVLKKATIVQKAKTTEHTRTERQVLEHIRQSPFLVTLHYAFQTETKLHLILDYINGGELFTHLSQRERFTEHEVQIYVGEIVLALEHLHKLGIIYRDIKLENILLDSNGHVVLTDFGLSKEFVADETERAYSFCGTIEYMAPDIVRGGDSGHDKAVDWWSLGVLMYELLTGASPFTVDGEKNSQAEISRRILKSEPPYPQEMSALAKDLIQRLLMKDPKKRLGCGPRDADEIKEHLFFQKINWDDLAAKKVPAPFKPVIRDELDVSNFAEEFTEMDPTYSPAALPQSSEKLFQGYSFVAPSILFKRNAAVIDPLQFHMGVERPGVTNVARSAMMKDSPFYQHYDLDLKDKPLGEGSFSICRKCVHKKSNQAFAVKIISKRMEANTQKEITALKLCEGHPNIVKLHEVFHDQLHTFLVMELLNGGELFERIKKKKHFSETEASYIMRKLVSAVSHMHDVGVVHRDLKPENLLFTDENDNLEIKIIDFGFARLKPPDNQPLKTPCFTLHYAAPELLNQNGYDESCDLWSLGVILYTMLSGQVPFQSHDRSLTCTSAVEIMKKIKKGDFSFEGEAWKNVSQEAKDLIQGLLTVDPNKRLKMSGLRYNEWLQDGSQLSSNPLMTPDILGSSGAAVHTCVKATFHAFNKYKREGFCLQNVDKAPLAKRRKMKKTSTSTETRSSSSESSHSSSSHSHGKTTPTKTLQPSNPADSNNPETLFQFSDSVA
Description: Inhibition of His-tagged human MSK1 expressed in Sf9 cells at 10 uM

[20] = species on record: Oryctolagus cuniculus; conditions: Muscle tissue, at 10 µM
Description: Inhibition of PHK from rabbit skeletal muscle at 10 uM

[21] = biological target: Protein kinase C alpha type (Homo sapiens, UniProt P17252); conditions: at 10 µM
Description: Inhibition of His-tagged human PKCalpha expressed in Escherichia coli at 10 uM

[22] = species on record: Oryctolagus cuniculus; conditions: at 10 µM
Description: Inhibition of rabbit MKK1 expressed in Escherichia coli at 10 uM

[23] = biological target: Serine/threonine-protein kinase N2 (Homo sapiens) (UniProt Q16513); assay: Inhibition of His-tagged human PRK2 expressed in HEK293 cells at 10 uM; format: cell-based
[24] = biological target: Ribosomal protein S6 kinase beta-1 (Homo sapiens, UniProt P23443); conditions: at 10 µM
Description: Inhibition of His-tagged human S6K1 expressed in Escherichia coli at 10 uM

[25] = Inhibition of MAPKAPK1b from rabbit skeletal muscle; format: tissue-based, Oryctolagus cuniculus, Muscle tissue
[26] = species on record: Oryctolagus cuniculus; conditions: Muscle tissue, at 10 µM; remark: listed apart in the source
Description: Inhibition of MAPKAPK1b from rabbit skeletal muscle at 10 uM

[27] = Inhibition of PHK from rabbit skeletal muscle; format: tissue-based, Oryctolagus cuniculus, Muscle tissue

Compound	residual activity [1] [%]	residual activity [2] [%]	residual activity [3] [%]	residual activity [4] [%]	residual activity [5] [%]	residual activity [6] [%]	residual activity [7] [%]	residual activity [8] [%]	residual activity [9] [%]	residual activity [11] [%]	residual activity [12] [%]	residual activity [13] [%]	residual activity [14] [%]	residual activity [15] [%]	residual activity [17] [%]	residual activity [18] [%]	residual activity [19] [%]	level, % of control [20] [%]	residual activity [21] [%]	other results
O=C(NOCC1CC1)c1ccc(F)c(F)c1Nc1ccc(I)cc1Cl	104	89	71	89	111	98	107	98	96	83	100	107	105	102	119	100	118	117	99	residual activity [10]: 99%; inhibition [16]: 50%
C[C@@H](N)[C@H]1CC[C@H](C(=O)Nc2ccncc2)CC1 [Y-27632]	99	95	104	90	109	99	13	95	98	92	94	94	91	98	107	100	57	81	98	residual activity [22]: 103%; inhibition [23]: 6%; residual activity [24]: 94%; pIC50 [25]: 4.72; level, % of control [26]: 72%; pIC50 [27]: 4.36
